From patent US20050005311A1, “High throughput screening for cancer genes” (priority 2003, published 2005)

Tested on: l(2)gl primary tumor
Assay type: in vivo, Drosophila melanogaster
Protocol: Adult hosts injected with l(2)gl/l(2)gl larval tissue were orally administered drugs for 21 days after injection. Hosts were treated with 0 or 0.56 μg/ml of LY294002 (reduction of tumor size to 7% of untreated) and 0 or […] PD98059 (no effect).
Brain lobes from armadillo-lacZ marked larvae; were dissected and cut into halves. Each fragment was injected into the abdomen of a βgal^ml (a mutant that lacks endogenous […] expression) adult female using a 33 gauge needle, where it was cultured for 21 days at room temperature. Hosts that had received transplants were opened along the ventral midline and fixed in 3.7% formaldehyde in phosphate buffered saline (PBS). β-galactosidase in the donor tissue was detected by staining overnight at 37° C. in 0.02% X-gal in 10 mM Na pyrophosphate, 0.15 M NaCl, […], 5 mM ferricyanide, and 5 mM K ferrocyanide (Specialty Media). Secondary tumors were defined as β-galactosidase-marked cells distinct from the :implanted tumor, which was defined as the primary tumor.
The levels of Mothers against dpp (Mad), P13K, ERK, Akt, and cleaved caspase 3 were studied in brain extracts from l(2)gl/l(2)gl, l(2)gl/l(2)gl; sema-5c/sema-5c, and wild-type larvae. P13K was reduced in l(2)gl/l(2)gl;sema-5c/sema-5c compared to l(2)gl/l(2)gl. To further study the role of P13K in l(2)gl tumors, the P13K inhibitor, LY294002, was orally administered to Drosophila adults injected with l(2)gl/l(2)gl tissue.
Adult βgal^nl hosts transplanted with armadillo-lacZ marked l(2)gl brain fragments were treated with 0; 0.556; 5.56; and 55.6 μg/ml of the PI-3 K inhibitor, LY294002 (Sigma), by adding drug to fly media. Flies were cultured for 21 days on drug-containing food and stained for the presence of β-galactosidase. Primary tumor size was determined by counting the cells dissociated from tumors. See, e.g., FIG. 5.

O=c1cc(N2CCOCC2)oc2c(-c3ccccc3)cccc12 [LY294002]
primary tumor size (% of untreated) (adult hosts injected with l(2)gl/l(2)gl larval tissue, oral, 0.56 μg/ml, 21 days after injection (FIG. 5)): 7 % of untreated
adverse effects to the hosts (in vivo, po): without adverse effects
primary tumor size (orally administered to Drosophila adults injected with l(2)gl/l(2)gl tissue, dose not given): 7 % of untreated hosts

COc1cccc(-c2cc(=O)c3ccccc3o2)c1N [PD98059]
effect on l(2)gl primary tumor growth (adult hosts injected with l(2)gl/l(2)gl larval tissue, oral, 0.56 μ/ml, 21 days after injection (FIG. 5)): no effect
